Data reported in US9901609B2, “Medicinal plant extract” (UNIVERSITY OF ANTWERP, priority 2013, dated 2018).

Assay: Body weight monitoring during the in vivo experiment
Set-up: species or system dogs
Details: entire experiment (180 days)
Description: After each surgical procedure each dog received marbofloxacin 2% (1 mg/kg body weight) during 4 days. The body weight of all dogs was monitored during the entire experiment. Data are expressed as mean±SEM. Data were analyzed using one way analysis of variance (ANOVA), followed by the Bonferroni test or Kruskal-Wallis analysis and Dunnett T3. P≦0.05 was considered significant.

With C[C@H](CCC(=O)O)[C@H]1CC[C@H]2[C@@H]3[C@@H](O)C[C@@H]4C[C@H](O)CC[C@]4(C)[C@H]3CC[C@]12C [UDCA, ursodeoxycholic acid] as the compound, how does the “body weight of the dogs over time” value read?
The value was “gained or lost no body weight over time”.
